Reference: ChEMBL document CHEMBL1201862, “PubChem BioAssay data set” (2004)
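Values below derive from 48-hour exposures of cells grown in 96-well plates, with endpoints linearly interpolated between the two concentrations bracketing the appropriate inhibition level. GI50: concentration for 50% inhibition of growth.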 Active and inactive are the calls of the source. No stated cut-off is given here; in the data, active = GI50 up to about 1.1 µM and inactive = higher.

Columns and labels:
Test in all cases: growth of human tumour cells (NCI), 48 h
[1] = tested on: HCT-116
[2] = tested on: IGROV-1
[3] = tested on: UACC-257
[4] = tested on: M14
[5] = tested on: RPMI-8226
[6] = tested on: KM12
[7] = tested on: ACHN
[8] = tested on: OVCAR-3
[9] = tested on: HT-29
[10] = tested on: K562
[11] = tested on: T47D
[12] = tested on: LOX IMVI
[13] = tested on: TK-10
[14] = tested on: DU-145
[15] = tested on: SK-MEL-2
[16] = tested on: COLO 205
[17] = tested on: SK-MEL-5
[18] = tested on: 786-0
[19] = tested on: A498
[20] = tested on: SK-MEL-28
[21] = tested on: CCRF-CEM
[22] = tested on: NCI-H460
[23] = tested on: SF-268
[24] = tested on: SNB-75
[25] = tested on: SK-OV-3
[26] = tested on: UO-31
[27] = tested on: SR
[28] = tested on: Hs-578T
[29] = tested on: MDA-MB-435
[30] = tested on: RXF 393
[31] = tested on: MCF7
[32] = tested on: HOP-62
[33] = tested on: NCI-H522
[34] = tested on: MOLT-4
[35] = tested on: HCC 2998
[36] = tested on: OVCAR-5
[37] = tested on: PC-3
[38] = tested on: Malme-3M
[39] = tested on: MDA-N
[40] = tested on: SW-620
[41] = tested on: NCI-H226
[42] = tested on: HCT-15
[43] = tested on: HL-60
[44] = tested on: BT-549
[45] = tested on: OVCAR-4
[46] = tested on: MDA-MB-231
[47] = tested on: NCI-H23
[48] = tested on: OVCAR-8
[49] = tested on: A549
[50] = tested on: SNB-19
[51] = tested on: SN12C
[52] = tested on: U-251
[53] = tested on: UACC-62
[54] = tested on: EKVX
[55] = tested on: SF-295
[56] = tested on: CAKI-1
[57] = tested on: SF-539
[58] = tested on: HOP-92
[59] = tested on: NCI/ADR-RES

Measured: GI50

C[C@@H]1C(=O)C[C@H]2C(C)(C)CCC[C@]2(C)[C@@]1(O)CCc1ccoc1
inactive: [1] > 100 µM | [2] 57.4 µM | [3] > 100 µM | [4] > 100 µM | [5] 84.3 µM | [6] > 100 µM | [7] > 100 µM | [8] > 100 µM | [9] > 100 µM | [10] > 100 µM | [11] 82 µM | [12] > 100 µM | [13] > 100 µM | [14] > 100 µM | [15] > 100 µM | [16] > 100 µM | [17] > 100 µM | [18] > 100 µM | [19] > 100 µM | [20] > 100 µM | [21] > 100 µM | [22] > 100 µM | [23] 96.4 µM | [24] > 100 µM | [25] > 100 µM | [26] 55.1 µM | [27] 11.5 µM | [28] 89.5 µM | [29] > 100 µM | [30] > 100 µM | [31] > 100 µM | [32] > 100 µM | [33] 66.4 µM | [34] 80.4 µM | [35] > 100 µM | [36] > 100 µM | [37] > 100 µM | [38] > 100 µM | [39] > 100 µM | [40] > 100 µM | [41] 13.4 µM | [43] 53 µM | [44] > 100 µM | [45] > 100 µM | [46] > 100 µM | [47] > 100 µM | [48] > 100 µM | [49] > 100 µM | [50] > 100 µM | [51] > 100 µM | [52] > 100 µM | [53] > 100 µM | [54] > 100 µM | [55] > 100 µM | [56] > 100 µM | [57] > 100 µM | [58] > 100 µM
> 100 µM: [42]

CC(C)[C@H](NC(=O)[C@H](N)Cc1ccc(N(CCCl)CCCl)cc1)C(=O)O
inactive: [1] > 100 µM | [2] > 100 µM | [3] > 100 µM | [4] > 100 µM | [5] > 100 µM | [6] > 100 µM | [7] > 100 µM | [8] > 100 µM | [9] > 100 µM | [10] > 100 µM | [11] > 100 µM | [12] > 100 µM | [13] > 100 µM | [14] > 100 µM | [15] > 100 µM | [16] > 100 µM | [17] > 100 µM | [18] > 100 µM | [19] > 100 µM | [20] > 100 µM | [21] 78.7 µM | [22] > 100 µM | [23] > 100 µM | [24] > 100 µM | [25] > 100 µM | [26] > 100 µM | [28] > 100 µM | [29] > 100 µM | [30] > 100 µM | [31] > 100 µM | [32] > 100 µM | [33] > 100 µM | [34] 29.3 µM | [35] > 100 µM | [36] > 100 µM | [37] > 100 µM | [38] > 100 µM | [39] > 100 µM | [40] > 100 µM | [41] > 100 µM | [43] > 100 µM | [44] > 100 µM | [45] > 100 µM | [46] > 100 µM | [47] > 100 µM | [48] > 100 µM | [49] > 100 µM | [50] > 100 µM | [51] > 100 µM | [52] > 100 µM | [53] > 100 µM | [59] > 100 µM | [54] > 100 µM | [55] > 100 µM | [56] > 100 µM | [58] 9.82 µM
> 100 µM: [42]
